For 14 compounds, IC50 results are on record in US20250361241A1, “HPK1 INHIBITOR AND MEDICAL USE THEREOF” (Betta Pharmaceuticals Co., Ltd., priority 2022, published 2025).

Values joined by “and” are separate entries in the source; they are usually repeats but may differ in a detail not shown here. Equal values may be shown once. Bounds are passed on as bounds.

For one test, the target named is HPK1 (Homo sapiens (Human), UniProt Q92918). Briefly: HPK1 enzyme activity detection (1 mM ATP system), ADP-Glo with MBP substrate, Pharmacological Experiment 2. It counts as biochemical. As to the method: (§1) Pharmacological Experiment 2: […] The test compound was serially diluted using DMSO to 200 times the detection concentration. […] Centrifuge at 1000×g for 30 seconds and incubate at 25° C. for 15 minutes. • (5) Adding ATP and substrate: Add 2 μL of 2×ATP-MBP solution to the 384-well plate and centrifuge at 1000×g for 30 seconds. Seal the plate with a sealing film and incubate at 25° C. for 60 minutes. • (6) Add ADP-Glo reagent: Add 4 μL ADP-Glo reagent (Promega, V9103) to the 384-well plate, centrifuge at 1000×g for 30 seconds, and incubate at 25° C. for 60 minutes. • (7) Detection of luminescent signal; Add 8 μL of luminescent detection reagent (Promega, V9103) to a 384-well plate, centrifuge at 1000×g for 30 seconds, and incubate at 25° C. for 60 minutes. The chemiluminescent signal was read using a BMG instrument. • (8) Calculation of percentage inhibition rate: […] See Table 2 for the enzymatic IC 50 data of the example compounds on HPK1.
HPK1, sequence (Q92918 whole entry, species assumed): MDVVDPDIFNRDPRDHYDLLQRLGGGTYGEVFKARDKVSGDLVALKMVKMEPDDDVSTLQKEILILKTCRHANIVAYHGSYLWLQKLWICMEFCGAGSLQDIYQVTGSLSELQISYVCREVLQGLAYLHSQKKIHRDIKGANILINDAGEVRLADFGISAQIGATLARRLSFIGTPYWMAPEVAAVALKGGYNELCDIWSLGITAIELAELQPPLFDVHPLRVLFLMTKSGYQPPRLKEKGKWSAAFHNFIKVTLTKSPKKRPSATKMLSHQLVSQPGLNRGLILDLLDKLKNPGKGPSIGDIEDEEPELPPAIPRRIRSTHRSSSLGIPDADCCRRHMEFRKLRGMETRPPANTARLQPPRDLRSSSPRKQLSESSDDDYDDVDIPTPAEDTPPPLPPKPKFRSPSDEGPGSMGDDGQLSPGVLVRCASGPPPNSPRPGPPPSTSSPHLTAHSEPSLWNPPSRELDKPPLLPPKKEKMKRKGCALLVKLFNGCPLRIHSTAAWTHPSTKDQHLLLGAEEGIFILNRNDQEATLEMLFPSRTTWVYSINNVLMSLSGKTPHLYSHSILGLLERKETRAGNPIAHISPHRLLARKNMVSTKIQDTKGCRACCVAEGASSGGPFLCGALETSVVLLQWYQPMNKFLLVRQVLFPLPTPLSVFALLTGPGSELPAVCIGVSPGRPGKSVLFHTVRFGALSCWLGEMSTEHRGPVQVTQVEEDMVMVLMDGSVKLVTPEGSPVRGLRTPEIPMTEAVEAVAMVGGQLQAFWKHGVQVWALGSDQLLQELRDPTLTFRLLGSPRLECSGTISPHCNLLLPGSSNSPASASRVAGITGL
(In ADP-Glo the light output rises with the ADP produced.)

A further test deals with GLK (Homo sapiens (Human), UniProt Q8IVH8). Briefly: GLK kinase assay (1 mM ATP system), ADP-Glo. It counts as biochemical. The protocol: as §1, with “Solution” for “Pharmacological Experiment 2:”, “Add” for “Adding”, “signal:” for “signal;”, “microplate reader.” for “instrument.”, “GLK kinase IC50” for “enzymatic IC 50”
GLK, sequence (Q8IVH8 whole entry, species assumed): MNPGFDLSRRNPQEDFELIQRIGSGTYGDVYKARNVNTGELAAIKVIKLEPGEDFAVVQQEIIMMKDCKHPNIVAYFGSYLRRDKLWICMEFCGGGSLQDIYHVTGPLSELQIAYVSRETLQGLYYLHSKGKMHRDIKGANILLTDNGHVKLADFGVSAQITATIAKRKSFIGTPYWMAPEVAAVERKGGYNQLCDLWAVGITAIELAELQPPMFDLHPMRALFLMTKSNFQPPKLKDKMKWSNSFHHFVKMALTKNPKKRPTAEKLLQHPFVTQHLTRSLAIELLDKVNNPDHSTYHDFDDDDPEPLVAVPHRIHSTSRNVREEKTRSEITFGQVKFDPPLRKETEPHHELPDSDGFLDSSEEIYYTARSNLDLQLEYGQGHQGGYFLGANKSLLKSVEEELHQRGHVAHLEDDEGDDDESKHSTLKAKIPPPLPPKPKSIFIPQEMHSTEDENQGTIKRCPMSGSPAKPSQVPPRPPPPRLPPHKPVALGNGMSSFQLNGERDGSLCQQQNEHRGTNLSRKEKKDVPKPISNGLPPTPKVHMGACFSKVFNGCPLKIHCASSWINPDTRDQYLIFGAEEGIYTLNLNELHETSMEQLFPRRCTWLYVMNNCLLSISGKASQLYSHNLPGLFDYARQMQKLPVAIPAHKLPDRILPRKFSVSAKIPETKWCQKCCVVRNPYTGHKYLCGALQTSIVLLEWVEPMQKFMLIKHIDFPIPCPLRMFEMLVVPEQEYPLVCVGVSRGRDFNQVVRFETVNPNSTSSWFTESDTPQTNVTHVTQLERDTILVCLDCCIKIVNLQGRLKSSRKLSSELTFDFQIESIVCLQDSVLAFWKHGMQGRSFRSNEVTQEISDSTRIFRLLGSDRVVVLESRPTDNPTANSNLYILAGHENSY

For `CN(C)C1CCC2(CCOCC2)c2ccc(Nc3ccc(-c4ccnc5c4ccn5C)c4c3C(=O)NC4)nc21` (stereo not shown) [Compound 34], the concentration for half-maximal inhibition (IC50) (as a rule, the concentration that inhibits the measured activity by half) worked out at 8.18 nM against HPK1 and 779 nM against GLK.

Take `CN(C)C1CC2(CCOCC2)c2ccc(Nc3ccc(-c4cnn5cc(F)ccc45)c4c3C(=O)NC4)nc21` (stereo not shown) [Compound 36]: the IC50 against HPK1 is 2.73 nM; against GLK it was 78 nM.

As to `CN(C)C1CC2(CCOCC2)c2ccc(Nc3ccc(-c4cnn5ccccc45)c4c3C(=O)NC4)nc21` (stereo not shown) [Compound 37], the IC50 at HPK1 was found to be 2.25 nM; at GLK, 158 nM.

With `CN(C)C1CC2(CCOCC2)c2ccc(Nc3ccc(-c4cnn5cccnc45)c4c3C(=O)NC4)nc21` (stereo not shown) [Compound 38], the IC50 at HPK1 came out at 2.92 nM; against GLK, 232 nM.

In the case of `O=C1NCc2c(-c3cnc4cc(F)ccn34)ccc(Nc3ccc4c(n3)C(N3CCC3)CC43CCOCC3)c21` (stereo not shown) [Compound 39, 7-(7-(AZETIDIN-1-YL)-2′,3′,5′,6,6′,7-HEXAHYDROSPIRO[B]PYRIDINE-5,4′-PYRAN]-2-YL)AMINO)-4-(7-FLUOROIMIDAZO[1,2-A]PYRIDIN-3-YL)ISOINDOL-1-ONE], the IC50 on HPK1 is 3.7 nM and 2.78 nM; against GLK, 88.2 nM.

Consider `CN(C)C1CC2(CCOCC2)c2ccc(Nc3ccc(-c4cnc5cc(CO)ccn45)c4c3C(=O)NC4)nc21` (stereo not shown) [Compound 41, 7-((7-(DIMETHYLAMINO)-2′,3′,5′,6,6′,7-HEXAHYDROSPIRO[B]PYRIDIN-5,4′-PYRAN]-2-YL)AMINO)-4-(7-(HYDROXYMETHYL)IMIDAZO[1,2-A]PYRIDIN-3-YL)ISOINDOL-1-ONE], for which the IC50 on HPK1 was 3.76 nM; against GLK, 70.7 nM.

In the case of `CN(C)C1CC2(CCOCC2)c2ccc(Nc3ccc(-c4cnc5cc(Cl)ccn45)c4c3C(=O)NC4)nc21` (stereo not shown) [Compound 42], the IC50 on HPK1 is 4.62 nM; on GLK, 119 nM.

`CN(C)C1CC2(CCOCC2)c2ccc(Nc3ccc(-c4cnc5c(F)c(F)ccn45)c4c3C(=O)NC4)nc21` (stereo not shown) [Compound 43, 4-(7,8-DIFLUOROIMIDAZO[1,2-A]PYRIDIN-3-YL)-7-((7-(DIMETHYLAMINO)-2′,3′,5′,6,6′,7-HEXAHYDROSPIRO [B]PYRIDIN-5,4′-PYRAN]-2-YL)AMINO)ISOINDOL-1-ONE]: the results for the IC50 against HPK1 and at GLK were 4.22 nM and 657 nM, respectively.

Regarding `CN(C)C1CC2(CCOCC2)c2ccc(Nc3ccc(-c4cnc5ncccn45)c4c3C(=O)NC4)nc21` (stereo not shown) [Compound 44], the IC50 against HPK1 came to 3.05 nM; on GLK it was 378 nM.

Regarding `CN(C)C1CC2(CCOCC2)c2ccc(Nc3ccc(-c4cnc5cc(F)c(Cl)cn45)c4c3C(=O)NC4)nc21` (stereo not shown) [Compound 46, 4-(6-CHLORO-7-FLUOROIMIDAZO[1,2-A]PYRIDIN-3-YL)-7-((7-(DIMETHYLAMINO)-2′,3′,5′,6,6′,7-HEXAHYDRO SPIRO[B]PYRIDIN-5,4′-PYRAN]-2-YL)AMINO)ISOINDOLIN-1-ONE], the IC50 on HPK1 stood at 11.8 nM; against GLK it was 971 nM.

Consider `Cc1cc(Nc2ccc(-c3cnc4ccccn34)c3c2C(=O)NC3)nc2c1C1(CCOCC1)C[C@H]2N(C)C` [Compound 47], for which the IC50 against HPK1 is 1.51 nM; at GLK, 30.3 nM.

As to `Cc1cc(Nc2ccc(-c3cnn4ccccc34)c3c2C(=O)NC3)nc2c1C1(CCOCC1)C[C@H]2N(C)C` [Compound 48], the IC50 amounted to 2.06 nM against HPK1 and 8.81 nM on GLK.

Turning to `CN(C)Cc1nc(Nc2ccc(-c3cnc4cc(F)ccn34)c3c2C(=O)NC3)cc2c1C1(CCOCC1)NC2` [Compound 55], the IC50 against HPK1 worked out at 7.56 nM; against GLK, 2150 nM.

In the case of `O=C1NCc2c(-c3cnc4cc(F)ccn34)ccc(Nc3ccc4c(n3)C(N3CCOCC3)CC43CCOCC3)c21` (stereo not shown) [Compound 59, 4-(7-FLUOROIMIDAZO[1,2-A]PYRIDIN-3-YL)-7-(7-MORPHOLIN-2′,3′,5′,6,6′,7-HEXAHYDROSPIRO[B]PYRIDIN-5,4′-PYRAN]-2-YL)AMINO)ISOINDOL-1-ONE], the half-inhibitory concentration (IC50) is 6.09 nM against HPK1 and > 30000 nM against GLK.
